Laboratory results published in patent publication US20220062199A1, “PH[…] ACTIVATOR COMPOUNDS, COMPOSITIONS, METHODS AND USES THEREOF” (SOCIETE DES PRODUITS NESTLE S.A., priority 2019, published 2022).

Columns and labels:
AMPKα2β1γ1 = biological target: T1, AMPKα2β1γ1 (Homo sapiens, UniProt P54619+P54646+Q9Y478); experiment: Activation of bacterially-expressed AMPKα2β1γ1 in vitro (HTRF-KinEASE Cisbio assay); assay type: biochemical; settings: CaMKKβ-phosphorylated purified AMPK, varying concentrations, 30 mins, FIG. 1
T1 construct: His; made in house; host or cells: bacteria
Method: The AMPK heterotrimers were expressed in bacteria and purified through the His-α subunit by nickel purification before further purification through gel filtration. After being phosphorylated by incubation with CaMKKβ, AMPK complexes were further purified with a final gel filtration purification step. Phosphorylated purified AMPK was incubated with varying concentrations of Compound 1 or 2 for 30 mins using substrate and reagents from the HTRF-KinEASE Cisbio assay kit (STK S1 Kit). Phosphorylation of the substrate was measured by incubating with donor and acceptor antibodies for 2 h at room temperature as per the manufacturer's protocol (Coulerie et al., (2016) PMID: 27792327) and phosphorylated peptide detected by performing HTRF. The 665 nm/620 nm ratio was determined and plotted vs the log of the concentration of ligand.

[1] = system: phosphorylation of the AMPK substrate, acetyl-CoA carboxylase (ACC), in U2OS Flp-In T-REx mammalian cells; experiment: pACC HTRF assay: phosphorylation of the AMPK substrate ACC in U2OS Flp-In T-REx cells; assay type: cell-based; settings: varying concentrations, 1 h, media lacking FBS, FIG. 2
Method: U2OS Flp-In T-REx cells were first seeded at 50 K in a 96-well plate and left overnight at 37 C in DMEM GlutaMAX (Thermo Fisher Scientific) supplemented with 10% (vol/vol) FBS and 100 U/ml penicillin G, and 100 μg/ml streptomycin. Cells were treated for 1 h with varying concentrations of Lusianthridin in media lacking FBS and then cells were lysed in 50 μl of Cisbio lysis buffer #1 supplemented with blocking solution as per the manufacturer's protocol (Cisbio). Cells were lysed for 30 mins at room temperature before 16 μl of lysate was incubated with 4 μl of the HTRF antibodies (1:40 dilution of the acceptor and donor (p)ACC antibodies, as per the manufacturers protocol). Lysates were incubated overnight with the antibodies before 665 nm/620 nm ratio was determined using a MolecularDevices i3 plate reader (with a HTRF cartridge add-on).

T1 sequence (P54646 whole entry): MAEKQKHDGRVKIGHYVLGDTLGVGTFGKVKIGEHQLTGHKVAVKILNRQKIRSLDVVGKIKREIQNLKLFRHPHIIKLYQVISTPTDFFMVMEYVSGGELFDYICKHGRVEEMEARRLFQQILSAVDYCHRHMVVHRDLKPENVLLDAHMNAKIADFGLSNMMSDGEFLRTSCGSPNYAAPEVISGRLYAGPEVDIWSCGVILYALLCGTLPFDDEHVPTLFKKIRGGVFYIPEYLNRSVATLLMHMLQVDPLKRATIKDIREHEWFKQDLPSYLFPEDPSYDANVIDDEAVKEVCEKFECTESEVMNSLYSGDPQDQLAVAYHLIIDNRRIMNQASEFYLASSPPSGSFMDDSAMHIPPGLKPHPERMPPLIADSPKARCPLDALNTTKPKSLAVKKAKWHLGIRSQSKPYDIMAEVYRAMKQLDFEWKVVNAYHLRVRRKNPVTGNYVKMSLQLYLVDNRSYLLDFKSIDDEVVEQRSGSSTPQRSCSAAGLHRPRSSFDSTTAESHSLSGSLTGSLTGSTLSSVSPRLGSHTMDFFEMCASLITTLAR
T1 sequence (Q9Y478 whole entry): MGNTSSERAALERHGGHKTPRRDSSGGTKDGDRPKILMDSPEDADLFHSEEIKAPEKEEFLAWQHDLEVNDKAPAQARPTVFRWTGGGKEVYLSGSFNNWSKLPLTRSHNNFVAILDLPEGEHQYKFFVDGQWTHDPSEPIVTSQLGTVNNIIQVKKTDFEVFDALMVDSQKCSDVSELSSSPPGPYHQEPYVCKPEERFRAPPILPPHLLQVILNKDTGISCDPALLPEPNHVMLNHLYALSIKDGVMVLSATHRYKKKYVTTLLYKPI
T1 sequence (P54619 whole entry): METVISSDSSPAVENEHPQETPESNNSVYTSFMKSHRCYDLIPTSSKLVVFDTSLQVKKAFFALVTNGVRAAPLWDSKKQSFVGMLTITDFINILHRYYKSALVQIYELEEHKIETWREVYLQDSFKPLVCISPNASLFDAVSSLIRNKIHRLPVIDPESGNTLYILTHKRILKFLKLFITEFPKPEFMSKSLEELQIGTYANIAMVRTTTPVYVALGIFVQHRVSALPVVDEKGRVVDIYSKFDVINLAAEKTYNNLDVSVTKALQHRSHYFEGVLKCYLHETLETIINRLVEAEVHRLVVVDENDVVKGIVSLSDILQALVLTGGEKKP

Compound: COc1cc(O)c2c(ccc3cc(O)ccc32)c1 [Compound 1, 7-Methoxyphenanthrene-2,5-diol]
- activation of AMPK complexes in vitro (substrate phosphorylation, 665 nm/620 nm HTRF ratio vs log concentration) (AMPKα2β1γ1): directly activate AMPK complexes in vitro
- phosphorylation of the AMPK substrate ACC (665 nm/620 nm HTRF ratio) [1]: increase the phosphorylation of the AMPK substrate, ACC, in a dose-dependent manner

Compound: COc1cc(O)c2c(ccc3cccc(O)c32)c1 [Compound 2, 2-Methoxyphenanthrene-4,5-diol]
- activation of AMPK complexes in vitro (substrate phosphorylation, 665 nm/620 nm HTRF ratio vs log concentration) (AMPKα2β1γ1): directly activate AMPK complexes in vitro
- phosphorylation of the AMPK substrate ACC (665 nm/620 nm HTRF ratio) [1]: increase the phosphorylation of the AMPK substrate, ACC, in a dose-dependent manner
